Consider one molecule from ChEMBL document CHEMBL5729160, “Lysophosphatidic acid receptor 1 (LPAR1) inhibitor compounds” (2022).

Molecules are shown by their SMILES.

Test [1] deals with T1, Lysophosphatidic acid receptor 3 (Homo sapiens, UniProt Q9UBY5).
T1 sequence (Q9UBY5 whole entry): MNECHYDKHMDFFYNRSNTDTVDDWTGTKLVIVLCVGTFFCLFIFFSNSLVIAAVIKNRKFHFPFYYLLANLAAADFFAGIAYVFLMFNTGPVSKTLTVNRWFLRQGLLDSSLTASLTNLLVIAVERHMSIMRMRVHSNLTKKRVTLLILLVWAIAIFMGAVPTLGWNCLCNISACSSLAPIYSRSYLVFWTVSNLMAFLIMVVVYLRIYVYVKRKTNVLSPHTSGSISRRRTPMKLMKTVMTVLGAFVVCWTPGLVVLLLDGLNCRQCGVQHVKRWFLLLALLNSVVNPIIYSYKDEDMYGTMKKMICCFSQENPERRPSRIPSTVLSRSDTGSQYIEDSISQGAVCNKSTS
Put plainly: LPAR3 Calcium Flux Assays: A cDNA encoding the human LPAR3 receptor is synthesized and cloned into pDNA3 expression plasmid. The plasmid is transfected in U2OS cells using Lipofectamine 2000 (Invitrogen Corp., USA). Clones stably expressing human LPAR3 are selected using neomycin and identified as cells that show Ca-influx in response to LPA.U2OS cells overexpressing human LPAR3 are seeded at 20,000-40,000 cells per well in a 96-well poly-D-lysine coated plate one day before the assay. Prior to the assay, the cells are washed once with assay buffer (HBSS containing 20 mM HEPES and 0.2% BSA) and then incubated in 50 μl of assay buffer for 60 minutes. Then 50 μl of a calcium indicator dye (Fluo-4 NW, Molecular Probes) are added to each well and incubation is continued for 30 minutes at 37° C. and then 30 minutes at room temperature. 50 μl of test compounds in 4% DMSO are added to the cells and incubation continued at room temperature for 40 minutes. Cells are stimulated by the addition of 50 μl of 128 nM LPA and intracellular calcium is measured using the FLIPR TETRA (Molecular Devices). IC50 values are determined using “Genedata Screener” analysis tool. The format is cell-based. In general terms: Calcium flux is commonly read through the fluorescence of an indicator in the cells.

Test [2] deals with Lysophosphatidic acid receptor 1 (Homo sapiens, UniProt Q92633). Put plainly: LPAR1 Calcium Flux Assays: A cDNA encoding the human LPAR1 receptor is synthesized and cloned into pDNA3 expression plasmid. The plasmid is transfected in U937 cells using Lipofectamine 2000 (Invitrogen Corp., USA). Clones stably expressing human LPAR1 are selected using […] and identified as cells that show Ca-influx in response to LPA.U937 cells overexpressing human LPAR1 are seeded at 100,000 cells per well in a 96-well fibronectin (10 ug/ml) coated plate in 60 μl of assay buffer (HBSS containing 20 mM HEPES and 0.2% BSA) and then incubated for 60 minutes. Then 50 μl of a calcium indicator dye (Fluo-4 NW, Molecular Probes) are added to each well and incubation continued for 30 minutes at 37° C. and then 30 minutes at room temperature. 50 μl of test compounds in 4% DMSO are added to the cells and incubation continued at room temperature for 40 minutes. Cells are the stimulated by the addition of 50 μl of 128 nM LPA and intracellular calcium is measured using the FLIPR TETRA (Molecular Devices). IC50 values are determined using “Genedata Screener” analysis tool. The format is cell-based.
Lysophosphatidic acid receptor 1, sequence (Q92633 whole entry): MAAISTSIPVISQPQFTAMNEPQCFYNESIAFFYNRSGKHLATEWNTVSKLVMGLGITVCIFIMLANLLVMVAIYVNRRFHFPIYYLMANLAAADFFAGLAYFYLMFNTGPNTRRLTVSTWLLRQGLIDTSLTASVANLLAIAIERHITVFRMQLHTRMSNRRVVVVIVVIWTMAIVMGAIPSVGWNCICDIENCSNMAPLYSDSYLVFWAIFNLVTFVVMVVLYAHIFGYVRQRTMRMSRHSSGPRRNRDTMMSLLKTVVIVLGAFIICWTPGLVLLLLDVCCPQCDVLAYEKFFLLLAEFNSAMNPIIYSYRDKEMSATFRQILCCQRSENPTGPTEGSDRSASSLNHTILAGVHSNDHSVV

As to `Cn1ncc(-c2ccc(-c3ccc(C4(C(=O)O)CC4)c(C(F)(F)F)c3)cn2)c1Nc1cncc(OC2CC2)n1`, the results for the IC50 in test [1] and in test [2] were more than 10000 nM and 22 nM, respectively.

Broadly, the IC50 is the point on the concentration scale where inhibition reaches its midpoint.
